Laboratory results: PMC11818225, “Multifaceted Sulfonamide-Derived Thiosemicarbazones: Combining Metal Chelation and Carbonic Anhydrases Inhibition in Anticancer Therapy” (International Journal of Molecular Sciences, 2025)

Assays:
[1] = test system: A549 (non-small cell lung); experiment: Antiproliferative SBR assay (NCI protocol), A549; assay type: cell-based, human; details: 48 h exposure, n = 3, mean ± SD
Source text: (§1) The latter two represent multidrug-resistant cell lines.

WiDr (colon) = experiment: Antiproliferative SBR assay (NCI protocol), WiDr; assay type: cell-based, human; details: 48 h exposure, n = 3, mean ± SD, multidrug-resistant line
Source text: as §1

HBL-100 (breast) = experiment: Antiproliferative SBR assay (NCI protocol), HBL-100; assay type: cell-based, human; details: 48 h exposure, n = 3, mean ± SD
Source text: as §1

HeLa (cervix) = experiment: Antiproliferative SBR assay (NCI protocol), HeLa; assay type: cell-based, human; details: 48 h exposure, n = 3, mean ± SD
Source text: as §1

[2] = test system: SW1573 (non-small cell lung)
Experimental: The potential antiproliferative activity of sulfonamides synthesized in this study was evaluated in vitro using the SBR assay, following the US NCI protocol. A panel of six tumor cell lines was employed: A549 (non-small cell lung), HBL-100 (breast), HeLa (cervix), SW1573 (non-small cell lung), T-47D (breast), and WiDr (colon). The latter two represent multidrug-resistant cell lines.
Cells were maintained in culture in 60 mm cell culture dishes in growth medium (10 mL) and passaged twice weekly.
The antiproliferative activity of compounds was tested using our implementation of the protocol of the National Cancer Institute (NCI) of the USA. The following seeding densities (cells per well) were used: 2500 (A549, HBL-100, HeLa, and SW1573) and 5000 (T-47D and WiDr). Stock solutions of inhibitors (40 mM) were prepared in pure DMSO (400 times the maximum test concentration).

T-47D (breast) = experiment: Antiproliferative SBR assay (NCI protocol), T-47D; assay type: cell-based, human; details: 48 h exposure, n = 3, mean ± SD, multidrug-resistant line
Source text: as §1

human CA XII = human CA XII (Homo sapiens, UniProt O43570); experiment: Stopped-flow CO2 hydrase assay, CA XII; details: for Selectivity Ratio I/XII: Ki CA I / Ki CA XII; for Selectivity Ratio II/XII: Ki CA II / Ki CA XII
Sequence of human CA XII (O43570 25-354): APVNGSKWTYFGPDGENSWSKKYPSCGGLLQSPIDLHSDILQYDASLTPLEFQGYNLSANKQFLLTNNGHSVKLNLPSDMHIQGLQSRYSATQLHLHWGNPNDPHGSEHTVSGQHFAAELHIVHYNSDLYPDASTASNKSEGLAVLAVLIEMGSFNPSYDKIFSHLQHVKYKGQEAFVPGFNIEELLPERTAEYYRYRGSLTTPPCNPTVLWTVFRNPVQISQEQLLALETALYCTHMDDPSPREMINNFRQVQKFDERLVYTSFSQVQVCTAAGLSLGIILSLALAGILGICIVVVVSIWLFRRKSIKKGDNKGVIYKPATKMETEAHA

human CA II = human CA II (Homo sapiens, UniProt P00918); experiment: Stopped-flow CO2 hydrase assay, CA II
human CA IX = human CA IX (Homo sapiens, UniProt Q16790); experiment: Stopped-flow CO2 hydrase assay, CA IX; details: for Selectivity Ratio I/IX: Ki CA I / Ki CA IX; for Selectivity Ratio II/IX: Ki CA II / Ki CA IX
human CA I = human CA I (Homo sapiens, UniProt P00915); experiment: Stopped-flow CO2 hydrase assay, CA I
Sequence of human CA I (P00915 whole entry): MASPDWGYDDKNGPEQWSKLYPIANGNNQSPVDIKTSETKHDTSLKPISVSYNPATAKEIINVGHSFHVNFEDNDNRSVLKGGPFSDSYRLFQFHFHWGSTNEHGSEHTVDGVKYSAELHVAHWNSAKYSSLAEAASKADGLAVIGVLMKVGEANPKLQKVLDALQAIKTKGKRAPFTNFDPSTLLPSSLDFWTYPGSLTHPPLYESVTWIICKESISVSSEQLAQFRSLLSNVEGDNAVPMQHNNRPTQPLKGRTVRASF

Row | Compound | GI50 ([1]; Homo sapiens, A549) [µM] | GI50 (WiDr (colon); Homo sapiens, WiDr) [µM] | GI50 (HBL-100 (breast); Homo sapiens, HBL-100) [µM] | GI50 (HeLa (cervix); Homo sapiens, HeLa) [µM] | GI50 [2] [µM] | GI50 (T-47D (breast); Homo sapiens, T47D) [µM] | Ki (human CA XII) [µM] | Selectivity Ratio I/XII (human CA XII) | Selectivity Ratio II/XII (human CA XII) | Ki (human CA II) [µM] | Ki (human CA IX) [µM] | Selectivity Ratio I/IX (human CA IX) | Selectivity Ratio II/IX (human CA IX) | Ki (human CA I) [µM] | GI50 [1] [µM] | GI50 (WiDr (colon)) [µM] | GI50 (HBL-100 (breast)) [µM] | GI50 (HeLa (cervix)) [µM] | GI50 (T-47D (breast)) [µM]
1 | COc1ccc(/C=N/NC(=S)Nc2ccc(S(N)(=O)=O)cc2)cc1 [Compound 4b, 1-(4′-Methoxyphenylmethylene)-4-(4″-sulfonamidophenyl)-3-thiosemicarbazone] | > 100 | > 100 | > 100 | 64 ± 23 | > 100 | > 100 |  |  |  |  |  |  |  |  |  |  |  |  | 
2 | NS(=O)(=O)c1ccc(CCNC(=S)N/N=C/c2ccc(Br)cc2)cc1 [Compound 4p, 1-(4′-Bromophenylmethylene)-4-[2″-(4‴-sulfonamido)phenyl]ethyl-3-thiosemicarbazone] | 21 ± 4 | 58 ± 9 | 42 ± 8 | 31 ± 9 | 53 ± 17 | 37 ± 8 | 0.123 | 49.5 | 6.6 | 0.813 | 0.499 | 12.2 | 1.6 | 6.09 |  |  |  |  | 
3 | NNC(=S)Nc1ccc(S(N)(=O)=O)cc1 [Compound 3a, 4-N-(4′-Sulfonamidophenyl)-3-thiosemicarbazide] | > 100 | > 100 | > 100 | > 100 | > 100 | > 100 |  |  |  |  |  |  |  |  |  |  |  |  | 
4 | COc1ccc(/C=N/NC(=S)NCCc2ccc(S(N)(=O)=O)cc2)cc1 [Compound 4m, 1-(4′-Methoxyphenylmethylene)-4-[2″-(4‴-sulfonamido)phenyl]ethyl-3-thiosemicarbazone] | 97 ± 4 | > 100 | > 100 | > 100 | > 100 | > 100 | 0.035 | 99.4 | 9.2 | 0.321 | 0.164 | 21.2 | 2.0 | 3.48 |  |  |  |  | 
5 | NS(=O)(=O)c1ccc(NC(=S)N/N=C/c2ccc(F)cc2)cc1 [Compound 4c, 1-(4′-Fluorophenylmethylene)-4-(4″-sulfonamidophenyl)-3-thiosemicarbazone] | 25 ± 5 | 24 ± 4 | 28 ± 1 | 7.9 ± 1.1 | 6 ± 0.4 | 17 ± 1 |  |  |  |  |  |  |  |  |  |  |  |  | 
6 | NS(=O)(=O)c1cccc(NC(=S)N/N=C/c2ccc(Br)cc2)c1 [Compound 4k, 1-(4′-Bromophenylmethylene)-4-(3″-sulfonamidophenyl)-3-thiosemicarbazone] | 19 ± 6 | > 100 | 40 ± 1 | 45 ± 5 | 46 ± 1 | > 100 |  |  |  |  |  |  |  |  |  |  |  |  | 
7 | NS(=O)(=O)c1cccc(NC(=S)N/N=C/c2ccccc2)c1 [Compound 4g, 1-Phenylmethylene-4-(3″-sulfonamidophenyl)-3-thiosemicarbazone] | 51 ± 10 | 62 ± 10 | > 100 | 61 ± 6 | 70 ± 1 | 83 ± 10 |  |  |  |  |  |  |  |  |  |  |  |  | 
8 | COc1ccc(/C=N/NC(=S)Nc2cccc(S(N)(=O)=O)c2)cc1 [Compound 4h, 1-(4′-Methoxyphenylmethylene)-4-(3″-sulfonamidophenyl)-3-thiosemicarbazone] | > 100 | > 100 | > 100 | > 100 | > 100 | > 100 |  |  |  |  |  |  |  |  |  |  |  |  | 
9 | [NH2][Pt]([NH2])([Cl])[Cl] [CDDP, cisplatin, reference compound] |  |  |  |  | 2.7 ± 0.4 |  |  |  |  |  |  |  |  |  | 4.9 ± 0.2 | 26 ± 4 | 1.9 ± 0.2 | 1.8 ± 0.5 | 17 ± 3
10 | NS(=O)(=O)c1ccc(CCNC(=S)N/N=C/c2ccc(F)cc2)cc1 [Compound 4n, 1-(4′-Fluorophenylmethylene)-4-[2″-(4‴-sulfonamido)phenyl]ethyl-3-thiosemicarbazone] | > 100 | > 100 | > 100 | > 100 | > 100 | > 100 | 0.0485 | 51.2 | 12.2 | 0.59 | 0.3 | 8.3 | 2.0 | 2.49 |  |  |  |  | 
11 | NS(=O)(=O)c1cccc(NC(=S)N/N=C/c2ccc(F)cc2)c1 [Compound 4i, 1-(4′-Fluorophenylmethylene)-4-(3″-sulfonamidophenyl)-3-thiosemicarbazone] | 83 ± 16 | 79 ± 29 | > 100 | > 100 | > 100 | > 100 |  |  |  |  |  |  |  |  |  |  |  |  | 
12 | NS(=O)(=O)c1ccc(NC(=S)N/N=C/c2ccc([N+](=O)[O-])cc2)cc1 [Compound 4f, 1-(4′-Nitrophenylmethylene)-4-(4″-sulfonamidophenyl)-3-thiosemicarbazone] | > 100 | > 100 | > 100 | > 100 | > 100 | > 100 |  |  |  |  |  |  |  |  |  |  |  |  | 
13 | NS(=O)(=O)c1cccc(NC(=S)N/N=C/c2ccc(Cl)cc2)c1 [Compound 4j, 1-(4′-Chlorophenylmethylene)-4-(3″-sulfonamidophenyl)-3-thiosemicarbazone] | 22 ± 4 | 24 ± 8 | 42 ± 15 | 38 ± 3 | 36 ± 4 | 59 ± 16 |  |  |  |  |  |  |  |  |  |  |  |  | 
14 | NS(=O)(=O)c1ccc(CCNC(=S)N/N=C/c2ccccc2)cc1 [Compound 4l, 1-Phenylmethylene-4-[2′-(4″-sulfonamido)phenyl]ethyl-3-thiosemicarbazone] | 90 ± 14 | 90 ± 14 | > 100 | > 100 | 99 ± 1 | > 100 | 0.00912 | 62.3 | 7.7 | 0.0702 | 0.0308 | 18.4 | 2.3 | 0.568 |  |  |  |  | 
15 | NNC(=S)NCCc1ccc(S(N)(=O)=O)cc1 [Compound 3c, 4-N-[2′-(4″-Sulfonamido)phenyl]ethyl-3-thiosemicarbazide] | > 100 | > 100 | > 100 | > 100 | > 100 | > 100 | 0.00502 | 15.7 | 1.7 | 0.00851 | 0.013 | 6.1 | 0.65 | 0.079 |  |  |  |  | 
16 | NS(=O)(=O)c1ccc(NC(=S)N/N=C/c2ccc(Br)cc2)cc1 [Compound 4e, 1-(4′-Bromophenylmethylene)-4-(4″-sulfonamidophenyl)-3-thiosemicarbazone] | 23 ± 6 | 62 ± 12 | 24 ± 2 | 18 ± 1 | 22 ± 1 | 36 ± 1 |  |  |  |  |  |  |  |  |  |  |  |  | 
17 | NS(=O)(=O)c1ccc(NC(=S)N/N=C/c2ccc(Cl)cc2)cc1 [Compound 4d, 1-(4′-Chlorophenylmethylene)-4-(4″-sulfonamidophenyl)-3-thiosemicarbazone] | > 100 | > 100 | > 100 | > 100 | > 100 | > 100 |  |  |  |  |  |  |  |  |  |  |  |  | 
18 | NS(=O)(=O)c1ccc(CCNC(=S)N/N=C/c2ccc(Cl)cc2)cc1 [Compound 4o, 1-(4′-Chlorophenylmethylene)-4-[2″-(4‴-sulfonamido)pheny]ethyl-3-thiosemicarbazone] | 62 ± 6 | > 100 | 76 ± 32 | 45 ± 16 | 73 ± 38 | > 100 | 0.143 | 43.4 |  | 0.773 | 0.408 | 15.2 | 1.9 | 6.22 |  |  |  |  | 
19 | NS(=O)(=O)c1ccc(CCNC(=S)N/N=C/c2ccccn2)cc1 [Compound 5c, 1-(Pyridin-2′-ylmethylene)-4-[2″-(4‴-sulfonamidophenyl)]ethyl-3-thiosemicarbazone] | 37 ± 11 | > 100 | > 100 | > 100 | > 100 | > 100 | 0.0093 | 29.0 | 9.0 | 0.0839 | 0.0285 | 9.5 | 2.9 | 0.27 |  |  |  |  | 
20 | NNC(=S)Nc1cccc(S(N)(=O)=O)c1 [Compound 3b, 4-N-(3′-Sulfonamidophenyl)-3-thiosemicarbazide] | > 100 | > 100 | > 100 | > 100 | > 100 | > 100 | 0.116 | 12.6 | 3.8 | 0.439 | 0.185 | 7.9 | 2.4 | 1.46 |  |  |  |  | 
21 | O=c1[nH]cc(F)c(=O)[nH]1 [5-Fluorouracil, reference compound] | 2.2 ± 0.3 | 49 ± 7 | 4.4 ± 0.7 | 16 ± 5 | 3.3 ± 1.2 | 43 ± 16 |  |  |  |  |  |  |  |  |  |  |  |  | 
